B2: yeast Pex13-V5 (expressed by its endogenous promotor) (other, yeast (S. cerevisiae), UniProt P80667 1-386, looked up)
chain: MSSTAVPRPKPWETSASLEEPQRNAQSLSAMMTSNQQDSRPTEESNNSNSASESAPEVLPRPAALNSSGTYGESNTIPGIYGNSNYGIPYDNNPYSMNSIYGNSIGRYGYGGSYYGNNYGSFYGGGYGAGAGYGMNNGSGLGESTKATFQLIESLIGAVTGFAQMLESTYMATHNSFFTMISVAEQFGNLKEMLGSFFGIFAIMKFLKKILYRATKGRLGIPPKNFAESEGSKNKLIEDFQKFNDSGTINSNEKATRRKISWKPLLFFLMAVFGFPYLLNKFITKLQTSGTIRASQGNGSEPIDPSKLEFARALYDFVPENPEMEVALKKGDLMAILSKKDPLGRDSDWWKVRTKNGNIGYIPYNYIEIIKRRKKIEHVDDETRTH
notes: not shown: V5 tag

Experiment [1] relates to PEX3− patient fibroblasts. As to the kind of experiment: Unbiased whole cell lipidomics. The conditions noted are these: patient cell line with overexpression of ATAD1. Format: cell-based, human. Here is the method: (§1) Representative images of the most observed mitochondrial morphology are shown. […] OCR (pmol/min/norm.unit) for cWT (wild-type), cWT+ATAD1 (wild-type expressing ATAD1) PEX3− (patient), PEX3−+ATAD1 (PEX3− expressing ATAD1), cWT-ATAD1 (wildtype with ATAD1 deletion), PEX3−ATAD1 (patient with ATAD1 deletion) cells plotted against time (XF96e Extracellular Flux Analyzer, Mito-Stress-Test.) Oligomycin A (1 μM), 0.15 μM FCCP and 1 μM rotenone+1 μM antimycin A (final concentrations) were sequentially delivered to the XF96e assay medium through injection ports in the sensor cartridge. n=2 (4+4=8 technical replicates). […] Statistical significance (Welch's test), p values are indicated as: ns (not significant), * p≤0.05, ** p≤0.01, *** p≤0.001, **** p≤0.0001. […] Statistical significance (Welch's test), p values are indicated as: ns (not significant), * p≤0.05, ** p≤0.01, *** p≤0.001, **** p≤0.0001. FIG. 5E show a bar graph representation of calculated respiratory spare capacity (=uncoupled respiration minus basal respiration) of cWT (wild-type), cWT+ATAD1 (wild-type expressing ATAD1) PEX3− (patient), PEX3−+ATAD1 (PEX3− expressing ATAD1), cWT-ATAD1 (wildtype with ATAD1 deletion), PEX3−ATAD1 (patient with ATAD1 deletion). Statistical significance (Welch's test), p values are indicated as: ns (not significant), * p≤0.05, ** p≤0.01, *** p≤0.001, **** p≤0.0001.
To complement the characterization with other readouts relevant to reflect important mitochondrial function, unbiased whole cell lipidomics was performed. […] Another readout of flourishing mitochondrial metabolism is the capacity of mitochondria to import […] phosphatidylserines (PSs) into phosphatidylethanolamines (PEs). […] The class of phospho-ether lipids (plasmalogens), precursors to myelin, seems to be unaffected (FIG. 5H).

Experiment [2] concerns PEX3 deficient (PEX3−) fibroblast cell line derived from a patient with Zellweger Syndrome. In words: Live cell fluorescent imaging of peroxin-GFP localization with ATAD1 overexpression. Format: cell-based, human.
The subject of experiment [3] is PEX3− patient fibroblasts. In words: Electron microscopy of mitochondrial morphology. Format: cell-based, human. How it is done: Representative images of the most observed mitochondrial morphology are shown. […] OCR (pmol/min/norm.unit) for cWT (wild-type), cWT+ATAD1 (wild-type expressing ATAD1) PEX3− (patient), PEX3−+ATAD1 (PEX3− expressing ATAD1), cWT-ATAD1 (wildtype with ATAD1 deletion), PEX3−ATAD1 (patient with ATAD1 deletion) cells plotted against time (XF96e Extracellular Flux Analyzer, Mito-Stress-Test.) Oligomycin A (1 μM), 0.15 μM FCCP and 1 μM rotenone+1 μM antimycin A (final concentrations) were sequentially delivered to the XF96e assay medium through injection ports in the sensor cartridge. n=2 (4+4=8 technical replicates). […] Statistical significance (Welch's test), p values are indicated as: ns (not significant), * p≤0.05, ** p≤0.01, *** p≤0.001, **** p≤0.0001. […] Statistical significance (Welch's test), p values are indicated as: ns (not significant), * p≤0.05, ** p≤0.01, *** p≤0.001, **** p≤0.0001. FIG. 5E show a bar graph representation of calculated respiratory spare capacity (=uncoupled respiration minus basal respiration) of cWT (wild-type), cWT+ATAD1 (wild-type expressing ATAD1) PEX3− (patient), PEX3−+ATAD1 (PEX3− expressing ATAD1), cWT-ATAD1 (wildtype with ATAD1 deletion), PEX3−ATAD1 (patient with ATAD1 deletion). Statistical significance (Welch's test), p values are indicated as: ns (not significant), * p≤0.05, ** p≤0.01, *** p≤0.001, **** p≤0.0001. […]

For experiment [4], the system named is PEX3− patient fibroblasts. In words: Seahorse XF 96e Flux analyzer respiration (Mito-Stress-Test). Format: cell-based, human. Here is the method:
as §1
Therefore, it was tested whether removal of the accumulated peroxins is able to restore mitochondrial respiration. To test the direct dependence of this phenotype with the expression levels of ATAD1, additional cell lines with genetic deletion of ATAD1 was generated. A Seahorse XF 96e Flux analyzer was used to measure respiration (FIG. 5B). A significant lower basal rate of respiration in the PEX3^− cell line was observed compared to the complemented wild-type cWT (FIGS. 5B, 5C). […] In the case that the expression level of ATAD1 is sufficient to cause the phenotype, it would be expected that a much more severe phenotype in the patient with an additional ATAD1 deletion. […]

In experiment [5] the target is B2. As to the kind of experiment: BN-PAGE of digitonin-solubilised yeast mitochondrial membranes with complexome profiling (co-migration). How it is done: Gel was transferred to PVDF membrane and immunoblotted for PEX13^V5 (V5). […] Left panel represents the protein abundance in the wild-type, middle panel in pex19Δ and the right panel in pex19Δmsp1Δ.
Some peroxisomal matrix proteins were detected that have never been reported to be localized to the mitochondria before (FIG. 2 and FIG. 3A (summary cartoon)). Therefore, it was tested whether the enrichment of peroxins on mitochondria is a random accumulation or a structured event.

Another experiment deals with T1, yeast Pex25 (yeast (S. cerevisiae), UniProt Q02969 1-394).
T1 sequence (looked up): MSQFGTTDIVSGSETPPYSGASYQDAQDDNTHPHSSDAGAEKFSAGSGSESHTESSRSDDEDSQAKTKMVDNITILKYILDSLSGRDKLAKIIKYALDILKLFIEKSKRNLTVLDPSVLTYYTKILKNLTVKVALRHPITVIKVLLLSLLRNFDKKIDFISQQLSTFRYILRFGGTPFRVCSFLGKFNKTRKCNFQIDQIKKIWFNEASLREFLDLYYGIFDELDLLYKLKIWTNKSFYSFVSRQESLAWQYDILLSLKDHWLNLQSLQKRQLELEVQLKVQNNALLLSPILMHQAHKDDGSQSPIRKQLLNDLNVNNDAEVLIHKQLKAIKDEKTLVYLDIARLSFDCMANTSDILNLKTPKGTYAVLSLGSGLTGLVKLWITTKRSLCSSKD
In words: BN-PAGE of digitonin-solubilised yeast mitochondrial membranes with complexome profiling (co-migration in a 150-180 kDa subcomplex).

The target of experiment [6] is B2. The experiment is described as above.

Turning to “ATAD1: human AAA-ATPase acting in mitochondrial protein quality control; overexpressed in patient fibroblasts”, in experiment [1], the Cardiolipin levels result is listed as “normalizes to wild-type levels”, the “Phosphatidylethanolamine (PE) levels” value is on record as “slightly higher values than in wild-type” and the “Phospho-ether lipids (plasmalogens)” value is listed as “unaffected”. The PEX13-GFP localization entry in experiment [2] (PEX3−ATAD+ cells (ATAD1 overexpressed), Mitotracker far red counterstain) was “not stabilized in the mitochondrial outer membrane”. Also, the PEX12-GFP distribution entry in experiment [2] (PEX12-GFP transiently expressed, ATAD1 overexpressing patient cell line, compared with PEX13-GFP result) was “very similar distribution with a slightly milder effect”. In experiment [3] (PEX3−ATAD+ cells, patient >80% type 2, wild-type about 80% types 1 and 3), the “Share accounted as type 3 (mitochondria with fewer cristae)” value is given as “about 70%”. Also, the “Mitochondrial morphology (electron density, cristae)” value in experiment [3] (patient cell line overexpressing ATAD1, electron microscopy) was “electron density recovers and cristae formation is partially detected”. For the same molecule, the “Mitochondrial spare capacity (uncoupled minus basal respiration)” value in experiment [4] (PEX3−ATAD+) is on record as “recovered the mitochondrial spare capacity”. For the same molecule, the Uncoupled respiration entry in experiment [4] (PEX3−ATAD+ versus cWT, FCCP 0.15 μM) is on record as “normalized to wild-type respiration”. In experiment [4] (PEX3−ATAD+ versus cWT, OCR), the Basal mitochondrial respiration entry is on record as “restored back to wild-type level”.

B1: yeast Pex14 (other, yeast (S. cerevisiae), UniProt P53112 2-341, looked up)
chain: SDVVSKDRKALFDSAVSFLKDESIKDAPLLKKIEFLKSKGLTEKEIEIAMKEPKKDGIVGDEVSKKIGSTENRASQDMYLYEAMPPTLPHRDWKDYFVMATATAGLLYGAYEVTRRYVIPNILPEAKSKLEGDKKEIDDQFSKIDTVLNAIEAEQAEFRKKESETLKELSDTIAELKQALVQTTRSREKIEDEFRIVKLEVVNMQNTIDKFVSDNDGMQELNNIQKEMESLKSLMNNRMESGNAQDNRLFSISPNGIPGIDTIPSASEILAKMGMQEESDKEKENGSDANKDDNAVPAWKKAREQTIDSNASIPEWQKNTAANEISVPDWQNGQVEDSIP
B1: in experiment [5], the binding result was “binds”.
As to B2, in the experiment with yeast Pex25, the binding result is “binds”.

B3: yeast Pex11 (other, yeast (S. cerevisiae), UniProt Q12462 2-236, looked up)
chain: VCDTLVYHPSVTRFVKFLDGSAGREKVLRLLQYLARFLAVQNSSLLARQLQAQFTTVRKFLRFLKPLNHLQAAAKFYDNKLASDNVVRVCNVLKNIFFAAYLSLDQVNLLRILKVIPVTVLTGKKIPRWSNWCWLFGLLSGLAMDLRKIQTSHAQIAAFVKAKSQSQGDEHEDHKKVLGKAYQDRYTALRRLFWDAADSFIVLNNLGYLSSNEEYVALSGVVTSILGMQDMWKAT
As for B3, the binding result in experiment [6] was “binds”.

(Values after patent US20220257725A1, “COMPOSITIONS AND METHODS FOR TREATING PEROXISOMAL BIOGENESIS DISORDERS” (University of Utah Research Foundation, priority 2019, published 2022).)
